Test results from PubChem BioAssay AID1963974 (Molecular Pharmacology Branch, DTP, NCI, 2024).

System: 648629-189-R-J1-PDC spheroids with HUVEC/MSC, viability
Experiment: Anticancer human tumor 648629-189-R-J1-PDC patient-derived bladder carcinoma cell line growth inhibition [PI3K]
Conditions: for IC50: curve of first compound; for viability, T/C: stronger effect = lower value
Method in brief: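 Viability of mixed-cell spheroids was determined after exposure to pairwise combinations, one partner being inavolisib, alpelisib, duvelisib or copanlisib. Highest tested concentration matched clinical Cmax where known and 10 microM where not, descending in half-log steps.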

[1] = second compound 0.0316 µM, first compound 0.0316 µM
[2] = second compound 0.0316 µM, first compound 0.1 µM
[3] = second compound 0.0316 µM, first compound 0.316 µM
[4] = second compound 0.0316 µM, first compound 1 µM
[5] = second compound 0.0316 µM, first compound 3.16 µM
[6] = second compound 0.0316 µM, first compound 10 µM
[7] = second compound 0.1 µM, first compound 0.0316 µM
[8] = second compound 0.1 µM, first compound 0.1 µM
[9] = second compound 0.1 µM, first compound 0.316 µM
[10] = second compound 0.1 µM, first compound 1 µM
[11] = second compound 0.1 µM, first compound 3.16 µM
[12] = second compound 0.1 µM, first compound 10 µM
[13] = second compound 0.316 µM, first compound 0.0316 µM
[14] = second compound 0.316 µM, first compound 0.1 µM
[15] = second compound 0.316 µM, first compound 0.316 µM
[16] = second compound 0.316 µM, first compound 1 µM
[17] = second compound 0.316 µM, first compound 3.16 µM
[18] = second compound 0.316 µM, first compound 10 µM
[19] = second compound 1 µM, first compound 0.0316 µM
[20] = second compound 1 µM, first compound 0.1 µM
[21] = second compound 1 µM, first compound 0.316 µM
[22] = second compound 1 µM, first compound 1 µM
[23] = second compound 1 µM, first compound 3.16 µM
[24] = second compound 1 µM, first compound 10 µM
[25] = second compound 3.16 µM, first compound 0.0316 µM
[26] = second compound 3.16 µM, first compound 0.1 µM
[27] = second compound 3.16 µM, first compound 0.316 µM
[28] = second compound 3.16 µM, first compound 1 µM
[29] = second compound 3.16 µM, first compound 3.16 µM
[30] = second compound 3.16 µM, first compound 10 µM
[31] = second compound 10 µM, first compound 0.0316 µM
[32] = second compound 10 µM, first compound 0.1 µM
[33] = second compound 10 µM, first compound 0.316 µM
[34] = second compound 10 µM, first compound 1 µM
[35] = second compound 10 µM, first compound 3.16 µM
[36] = second compound 10 µM, first compound 10 µM
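Further: spheroids exposed to agents for seven days before reading.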
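Wherever viability, T/C is given: percent of vehicle control luminescence where 100% = DMSO treated spheroids.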

`C=CC(=O)N1CCN(c2nc(=O)n(-c3c(C)ccnc3C(C)C)c3nc(-c4c(O)cccc4F)c(F)cc23)C(C)C1` (stereo not drawn) + CC(Nc1ncnc2nc[nH]c12)c1cc2cccc(Cl)c2c(=O)n1-c1ccccc1 was tested, and the IC50 (second compound 0.0316 µM) was > 10000 nM, the IC50 (second compound 0.1 µM) was > 10000 nM and the IC50 (second compound 0.316 µM) was > 10000 nM. The IC50 (second compound 1 µM) was > 10000 nM, the IC50 (second compound 3.16 µM) was > 10000 nM and the IC50 (second compound 10 µM) was > 10000 nM. It also gave a viability, T/C [1] of 106%, a viability, T/C [2] of 95.3% and a viability, T/C [3] of 107%. For the same compound, the viability, T/C [4] was 109%, the viability, T/C [5] was 103% and the viability, T/C [6] was 96.9%. For the same compound, the viability, T/C [7] was 102%, the viability, T/C [8] was 101% and the viability, T/C [9] was 125%. The viability, T/C [10] was 104%, the viability, T/C [11] was 108% and the viability, T/C [12] was 87.5%. The viability, T/C [13] was 95.4%, the viability, T/C [14] was 115% and the viability, T/C [15] was 112%. It also gave a viability, T/C [16] of 103%, a viability, T/C [17] of 112% and a viability, T/C [18] of 103%. It also gave a viability, T/C [19] of 120%, a viability, T/C [20] of 99.3% and a viability, T/C [21] of 107%. The viability, T/C [22] was 107%, the viability, T/C [23] was 101% and the viability, T/C [24] was 92.1%. The viability, T/C [25] was 103%, the viability, T/C [26] was 92.1% and the viability, T/C [27] was 104%. The viability, T/C [28] was 101%, the viability, T/C [29] was 106% and the viability, T/C [30] was 98.8%. It also gave a viability, T/C [31] of 94.2%, a viability, T/C [32] of 86.9% and a viability, T/C [33] of 96.4%. For the same compound, the viability, T/C [34] was 95.6%, the viability, T/C [35] was 89.8% and the viability, T/C [36] was 88.3%.
`CNC(=O)c1ccc(N2C(=S)N(c3ccc(C#N)c(C(F)(F)F)c3)C(=O)C2(C)C)cc1F` + Cc1nc(NC(=O)N2CCCC2C(N)=O)sc1-c1ccnc(C(C)(C)C(F)(F)F)c1 was tested, and the IC50 (second compound 0.0316 µM) was > 10000 nM, the IC50 (second compound 0.1 µM) was > 10000 nM and the IC50 (second compound 0.316 µM) was > 10000 nM. For the same compound, the IC50 (second compound 1 µM) was > 10000 nM, the IC50 (second compound 3.16 µM) was > 10000 nM and the IC50 (second compound 10 µM) was < 31.6 nM. For the same compound, the viability, T/C [1] was 106%, the viability, T/C [2] was 105% and the viability, T/C [3] was 118%. The viability, T/C [4] was 111%, the viability, T/C [5] was 104% and the viability, T/C [6] was 89.7%. The viability, T/C [7] was 90.1%, the viability, T/C [8] was 92.7% and the viability, T/C [9] was 106%. The viability, T/C [10] was 102%, the viability, T/C [11] was 102% and the viability, T/C [12] was 79%. The viability, T/C [13] was 91.4%, the viability, T/C [14] was 99.7% and the viability, T/C [15] was 98.1%. The viability, T/C [16] was 98.4%, the viability, T/C [17] was 89.7% and the viability, T/C [18] was 72.8%. For the same compound, the viability, T/C [19] was 73.2%, the viability, T/C [20] was 82.3% and the viability, T/C [21] was 76.7%. For the same compound, the viability, T/C [22] was 81.1%, the viability, T/C [23] was 78.6% and the viability, T/C [24] was 75.2%. The viability, T/C [25] was 64%, the viability, T/C [26] was 67.1% and the viability, T/C [27] was 55.1%. The viability, T/C [28] was 60.7%, the viability, T/C [29] was 64.7% and the viability, T/C [30] was 63.2%. For the same compound, the viability, T/C [31] was 40.3%, the viability, T/C [32] was 44.1% and the viability, T/C [33] was 40.2%. For the same compound, the viability, T/C [34] was 42%, the viability, T/C [35] was 45.7% and the viability, T/C [36] was 48.6%.
In the case of `CC1(C)CCC(Nc2ncc(C(F)(F)F)c(-c3c[nH]c4c(P(C)(C)=O)c(C#N)ccc34)n2)CN1` (stereo not drawn) + CC(Nc1ncnc2nc[nH]c12)c1cc2cccc(Cl)c2c(=O)n1-c1ccccc1, the IC50 (second compound 0.0316 µM) is reported as < 31.6 nM, the IC50 (second compound 0.1 µM) is reported as < 31.6 nM and the IC50 (second compound 0.316 µM) is reported as < 31.6 nM. For the same compound, the IC50 (second compound 1 µM) was < 31.6 nM, the IC50 (second compound 3.16 µM) was < 31.6 nM and the IC50 (second compound 10 µM) was < 31.6 nM. For the same compound, the viability, T/C [1] was 35.1%, the viability, T/C [2] was 29% and the viability, T/C [3] was 35.4%. For the same compound, the viability, T/C [4] was 35.2%, the viability, T/C [5] was 43% and the viability, T/C [6] was 11.7%. It also gave a viability, T/C [7] of 36.7%, a viability, T/C [8] of 33.5% and a viability, T/C [9] of 28.3%. The viability, T/C [10] was 36%, the viability, T/C [11] was 39.6% and the viability, T/C [12] was 10.8%. The viability, T/C [13] was 32%, the viability, T/C [14] was 29.4% and the viability, T/C [15] was 29.1%. For the same compound, the viability, T/C [16] was 31.8%, the viability, T/C [17] was 39.1% and the viability, T/C [18] was 11.5%. For the same compound, the viability, T/C [19] was 30.6%, the viability, T/C [20] was 32.4% and the viability, T/C [21] was 29.8%. It also gave a viability, T/C [22] of 31.6%, a viability, T/C [23] of 42% and a viability, T/C [24] of 10.1%. The viability, T/C [25] was 34%, the viability, T/C [26] was 29.2% and the viability, T/C [27] was 28.9%. The viability, T/C [28] was 30.7%, the viability, T/C [29] was 36.2% and the viability, T/C [30] was 7.47%. It also gave a viability, T/C [31] of 39.7%, a viability, T/C [32] of 32% and a viability, T/C [33] of 33.3%. It also gave a viability, T/C [34] of 30.2%, a viability, T/C [35] of 34.7% and a viability, T/C [36] of 4.52%.
`Cn1ncc(Cl)c1-c1cc(C(=O)NC(CN)Cc2cccc(F)c2)sc1Cl` (stereo not drawn) + Cc1nc(NC(=O)N2CCCC2C(N)=O)sc1-c1ccnc(C(C)(C)C(F)(F)F)c1 gave an IC50 (second compound 0.0316 µM) of 510 nM, an IC50 (second compound 0.1 µM) of 405 nM and an IC50 (second compound 0.316 µM) of 312 nM. The IC50 (second compound 1 µM) was 218 nM, the IC50 (second compound 3.16 µM) was 75.9 nM and the IC50 (second compound 10 µM) was < 31.6 nM. The viability, T/C [1] was 105%, the viability, T/C [2] was 97% and the viability, T/C [3] was 55.6%. For the same compound, the viability, T/C [4] was 34.7%, the viability, T/C [5] was 17.9% and the viability, T/C [6] was 2.36%. It also gave a viability, T/C [7] of 90.8%, a viability, T/C [8] of 76.8% and a viability, T/C [9] of 56.9%. The viability, T/C [10] was 27.6%, the viability, T/C [11] was 17.5% and the viability, T/C [12] was 1.87%. For the same compound, the viability, T/C [13] was 89.6%, the viability, T/C [14] was 73.8% and the viability, T/C [15] was 48.2%. For the same compound, the viability, T/C [16] was 28%, the viability, T/C [17] was 15.1% and the viability, T/C [18] was 1.73%. It also gave a viability, T/C [19] of 72.8%, a viability, T/C [20] of 66.6% and a viability, T/C [21] of 41%. It also gave a viability, T/C [22] of 23.3%, a viability, T/C [23] of 13.6% and a viability, T/C [24] of 1.42%. For the same compound, the viability, T/C [25] was 55.2%, the viability, T/C [26] was 50.3% and the viability, T/C [27] was 34.4%. The viability, T/C [28] was 20.5%, the viability, T/C [29] was 12.2% and the viability, T/C [30] was 1.25%. For the same compound, the viability, T/C [31] was 36.9%, the viability, T/C [32] was 31.7% and the viability, T/C [33] was 20.4%. For the same compound, the viability, T/C [34] was 13.5%, the viability, T/C [35] was 7.71% and the viability, T/C [36] was 0.35%.
